Columns and labels:
[1] = system: Male beagle; experiment: Duration of detumescence (T75) after cavernous nerve electrical stimulation in anesthetized beagle; type: in vivo; conditions: 0.1 mg/kg, i.v., cavernous nerve stimulation 7 Hz, 10 V, T75 = time from cessation of stimulation to 75% reduction of intracavernous pressure
Description: (c) Male beagle weighing 8.0-12.0 kg were anesthetized with pentobarbital sodium (35 mg/kg, i.v.). After tracheotomy, the animal was artificially ventilated using a volume-cycled ventilator. The femoral artery was cannulated for continuous blood pressure and heart rate monitoring. The femoral vein was cannulated for maintenance of anesthesia and administration of tested compound.
Either the left or right cavernous nerve was exposed posterolaterally to the prostate and a cuff electrode was placed around the nerve for electrical stimulation. A 21-gauge butterfly needle was placed in the corpus cavernousum and connected to a pressure transducer for intracavernous pressure. After a period of stabilization of all parameters, erection was induced by cavernous nerve electrically stimulation (7 Hz, 10 V) and the following was measured: the duration of detumescence (time (T75) from cessation of stimulation to 75% reduction of intracavernous pressure). The test compounds, i.e., N-(3,4-dimethoxybenzyl)-2-(cis-4-hydroxycyclohexylamino)-5-nitrobenzamide and (R)-N-(3,4-dimethoxybenzyl)-2-(2-hydroxy-1-methyl-ethylamino)-5-nitrobenzamide were each dissolved in 50% PEG400.

[2] = system: rabbit corpora cavernosa; experiment: Relaxation elicited by electrical field stimulation in rabbit corpora cavernosa; conditions: at 5×10^−8 M
Description: (b) Effect of test compounds on the relaxation elicited by electrical field stimulation in rabbit corpora cavernosa.
The rabbit erectile tissue strip prepared according to the method described by Italiano et al. (Pharmacological Research, 30, No 4, 1994) was placed 25 ml organ bath containing Krebs-Ringer solution. The bath was maintained at 37° C. and bubbled with 95% O2 and 5% CO2. The solution also contained atropine (1 μM) and guanethidine (50 μM). The erectile tissue strip was stretched with a resting force of 0.25 g, and isometric contraction were recorded via force development transducer on a recorder. The bipolar platinum electrode connected to the electric stimulator was placed around the strip.
The strip was equilibrated in the Krebs-Ringer solution for about 60 minutes and preconstricted by 0.1 mM norepinephrine to ascertain the responsibility of each preparation. The strip was washed several times, and then constricted by 0.1 mM norepinephrine. After getting stable contractile response to norepinephrine, the first electrical field stimulation (1 to 30 Hz, 20V, 0.5 msec duration, 90 sec interval) was delivered. 30 minutes after adding the tested compound, the second electrical field stimulation was delivered. […]

[3] = system: SD rat; type: in vivo; conditions: 32 mg/kg once a day for 14 consecutive days
Description: Toxicities of Compound (I)
Test on the toxicity by repetitive oral administration of the compounds, i.e., N-(3,4-dimethoxybenzyl)-2-(cis-4-hydroxycyclohexylamino)-5-nitrobenzamide and (R)-N-(3,4-dimethoxybenzyl)-2-(2-hydroxy-1-methylethylamino)-5-nitrobenzamide which were selected as representative compounds of this invention, in SD rat was conducted.

[4] = system: isolated rat corpora cavernosa; experiment: Nitroprusside-induced relaxation in isolated rat corpora cavernosa; design: species or system SD rat; conditions: in the presence of the test compound (5×10^−8 M); strip constricted by 0.1 mM norepinephrine; control preparation 20%
Description: (a) Effect of Test Compound on Nitroprusside or Ach-induced Relaxation in Isolated Rat Corpora Cavernosa.
Male SD rats were anesthetized with sodium pentobarbital 50 mg/kg intraperitoneally, and the corpora cavernosa was excised. The tunica albuginea was dissected according to the methods described by Italiano et al. (Pharmacological Research, 30, No. 4, 1994) and used for in vitro pharmacological study. The erectile tissue strip was placed in a 25 ml organ bath containing Krebs-Ringer solution. The bath was maintained at 37° C. and bubbled with 95% O2 and 5% CO2. The strip was stretched with a resting force of 0.25 g, and isometric contraction were recorded via force development transducer on a recorder.
The strip was equilibrated in the Krebs-Ringer solution for about 60 minutes, and preconstructed by 0.1 mM norepinephrine to ascertain the responsibility of each preparation. The strip was washed several times, and then constricted by 0.1 mM norepinephrine. After getting stable constrictile response to norepinephrine, the first dose-response curve for sodium nitroprusside or Ach(acetylcholine) was obtained. After washing a few times for 60 minutes, the strip was constricted by norepinephrine again, and the second dose-response curve for sodium nitroprusside or Ach was obtained. […]

SMILES | mean of prolongation of T75 [1] | relaxation of corpora cavernosa elicited by electrical field stimulation (effect in words) [2] | The dead (toxicity by repetitive oral administration) [3] | Relaxant response elicited by 10 μM nitroprusside [4]
COc1ccc(CNC(=O)c2cc([N+](=O)[O-])ccc2N[C@H](C)CO)cc1OC [(R)-N-(3,4-Dimethoxybenzyl)-2-(2-hydroxy-(1-methylethylamino)-5-nitrobenzamide] | 44 s | potentiated | could not be observed | 32%
COc1ccc(CNC(=O)c2cc([N+](=O)[O-])ccc2N[C@H]2CC[C@@H](O)CC2)cc1OC [N-(3,4-Dimethoxybenzyl)-2-(cis-4-hydroxycyclohexylamino)-5-nitrobenzamide] | 52 s | potentiated | could not be observed | 

Source: patent publication US6384080B1, “Anthranilic acid derivatives as inhibitors of the cGMP-phosphodiesterase” (Fujisawa Pharmaceutical Co., Ltd., priority 1998, dated 2002)
